The source of these data is patent US20260347336A1, “PRODRUGS, FORMULATIONS AND METHODS THEREOF” (OCULAR THERAPEUTIX, INC., priority 2022, published 2026).

Converted amounts (≈) assume the structure as drawn. Bounds are passed on as bounds.

Data set [1] in a line: Stability in phosphate buffer saline (Example 8). Format: physicochemical. The note with it: PBS, pH-7.40; for remaining at 24 h / remaining at 72 h / remaining at 168 h: phosphate buffer saline, pH 7.4, read-out: % remaining compared to Day 0; for remaining at 24 h: Day 1; for remaining at 72 h: Day 3; for remaining at 168 h: Day 7. As to the method: Axitinib prodrugs of the present invention were tested for stability in phosphate buffer saline (PBS, pH-7.40).

The conditions of data set [2]: cited from earlier work.
Data set [3] in a line: Solubility of axitinib and prodrug in phosphate buffer saline pH 7.4, 24 hour at 22 °C (Example 2). Type of data set: physicochemical. How it is done:
Solubility testing was performed with the following test items and conditions: • Test items: axitinib (99.99% purity by HPLC); axitinib-N-mPEG-succinoyloxymethyl prodrug (93.6% purity by HPLC) • Test media: phosphate buffer saline pH 7.4 • Incubation condition: 24 hour at 22 °C with continuous shaking • Test concentration: 1 mg/mL • Data analysis: Solubility of test item was determined by HPLC analysis with calibration curve

Data set [4] is described as follows: Solubility of axitinib prodrugs in phosphate buffer saline (Example 7). Format: physicochemical. The note with it: phosphate buffer saline (PBS, pH-7.40). How it is done: Axitinib prodrugs of the present invention were tested for solubility in phosphate buffer saline (PBS, pH-7.40).
Data set [5] is described as follows: Particle size after micronization (Example 6). Type of data set: physicochemical. The conditions noted are these: micronized. The source says: The micronization of the axitinib-N-m (PEG)2-oxymethyl prodrug obtained in Example 6 in a dry dispersion was D90=12.4 μm; D50=3.6 μm and D10=0.6 μm and dispersed in water was D90=12.2 μm; D50=5.2 μm and D10=1.1 μm.
Where [6] appears, read: phosphate buffer saline pH 7.4, 24 hour at 22 °C, continuous shaking, test concentration 1 mg/mL, HPLC.

As for `CNC(=O)c1ccccc1Sc1ccc2c(/C=C/c3ccccn3)n[nH]c2c1` [Axitinib, axitinib, reference compound], in data set [1], the “% remaining compared to Day 0” value was determined as 100.00%, the share remaining at 24 h was determined as 96.7%, the fraction remaining at 72 h was found to be 96.2% and the amount remaining at 168 h came out at 91.8%. In addition, the literature reported solubility entry in data set [2] was “about 0.2 mcg/mL”. Also, the solubility at 24 h in data set [3] (setting [6]) is less than 0.78 µg/mL.

For the molecule `CNC(=O)c1ccccc1Sc1ccc2c(/C=C/c3ccccn3)nn(COC(=O)CCC(=O)O)c2c1` [Axitinib-N-Succinoyloxymethyl Prodrug], the solubility in data set [4] (pH 7.4, read-out: Solubility) was determined as 217 µg/mL (≈ 421 µM).

Consider “axitinib-N-mPEG-succinoyloxymethyl [N-mPEG succinoyloxymethyl Prodrug]”, for which the solubility in data set [4] and in data set [3] (setting [6]) was 99.37 µg/mL throughout. Besides, the “solubility enhancement of prodrug” value in data set [3] (versus axitinib) is reported as ~ 500 ×.

Turning to `CNC(=O)c1ccccc1Sc1ccc2c(/C=C/c3ccccn3)nn(COC(=O)CCOCCOC)c2c1` [Axitinib-N-m(PEG)2-oxymethyl prodrug], in data set [4] (pH 7.4, read-out: Solubility), the solubility was 1.1 µg/mL (≈ 2.01 µM). Moreover, in data set [1], the “% remaining compared to Day 0” value was 100.00%, the share remaining at 24 h is 45.9%, the amount remaining at 72 h is 30.5% and the amount remaining at 168 h is 16.9%. In data set [5] (dispersed in water), the D10 is reported as 1.1 μm, the D50 is given as 5.2 μm and the D90 turned out to be 12.2 μm. In data set [5] (dry dispersion), this molecule registered a D10 of 0.6 μm, a D50 of 3.6 μm and a D90 of 12.4 μm.

As for `CNC(=O)c1ccccc1Sc1ccc2c(/C=C/c3ccccn3)nn(COC(=O)CCOC)c2c1` [Axitinib-N-m(PEG)1-oxymethyl prodrug], the solubility entry in data set [4] is recorded as “Not Soluble”. For the same molecule, in data set [1], the “% remaining compared to Day 0” value worked out at 100.00%, the amount remaining at 24 h came out at 38.8%, the amount remaining at 72 h is 6.7% and the fraction remaining at 168 h came to 5%.

For `CNC(=O)c1ccccc1Sc1ccc2c(/C=C/c3ccccn3)nn(COC(=O)CCOCCOCCOC)c2c1` [Axitinib-N-m(PEG)3-oxymethyl prodrug], the solubility in data set [4] (pH 7.4, read-out: Solubility) is 6.16 µg/mL (≈ 10.4 µM). Besides, in data set [1], the “% remaining compared to Day 0” value is reported as 100.00%, the fraction remaining at 24 h was found to be 53.9%, the amount remaining at 72 h stood at 24% and the fraction remaining at 168 h is 12.7%.

In general, fraction remaining refers to what is left of the initial amount, in per cent. What is called solubility is the concentration that dissolves in the medium under given conditions.
